Reference: US20070092474A1, “Carnitine salt, preliposome which contains it and dermocosmetic formula for topical use based upon said carnitine salt” (priority 2003, published 2007)

System: skin blemishes caused by cellulite and localised adiposity
Assay: Plicometry: skin plica thickness measured with a plicometer, dermatological test of the cosmetic gel
Assay type: in vivo, female volunteers
Conditions: MEDIA of 25 volunteers
Protocol: A dermatological test was carried out on 25 female volunteers between 18 and 65 years of age, with the backing of the Department of Physiological and Pharmacological Sciences of the university of Pavia. The investigation aimed to check the modification of three anatomical-physiological parameters, qualifying the unaesthetic-functional aspect connected to the manifestation of so-called cellulite and subcutaneous hypertriglyceridaemia: measurement of the skin folds, measurement of the circumference of the thighs, thermographic skin measurement.
The test stretched out over 60 days with the continual daily application of the aforementioned preparation of cosmetic gel. The measurements were carried out after 15, 30 and 60 days. The detail of the test protocol and of the results obtained is shown hereafter.
25 female volunteers aged between 18 and 65, with the presence of skin blemishes caused by cellulite and localised adiposity, were selected according to the following criteria: good general state of health, absence of skin pathologies, not being under medication, commitment not to vary the normal daily routine, no medical history of atopy.
The samples were tested by uniformly applying them on “Glute SX Glute DJ (Femoris Posto SX Femoris Posto DX Femoris Ant. SX Femoris Ant. DX” every day at least once per day for the entire duration of the test.
At the time of inclusion in the study and during the subsequent checks after 15 days (T15), after 30 days (T30) and after 60 days (T60) of treatment the following instrumental measurements were taken: • plicometry (through a plicometer) • thigh circumference (through a measuring tape broken into millimetres) • contact thermography (through liquid crystal thermographic plates).
In particular, the plicometer used in the test constitutes the suitable instrument for measuring the skin plica thickness. Skin plicometry provides numerical data of particular use when the panniculopathic process of the cellulite is associated with localised adiposity.

[1] = T0 at inclusion, before treatment
[2] = after 15 days of daily gel application
[3] = after 30 days of daily gel application
[4] = after 60 days of daily gel application

Substance: carnitine hydroxycitrate [carnitine hydroxy citrate]
- LEFT PLICOMETRY 1/3 T0, MEDIA [1]: 25.7
- LEFT PLICOMETRY 2/3 T0, MEDIA [1]: 29.6
- LEFT PLICOMETRY 3/3 T0, MEDIA [1]: 31.2
- RIGHT PLICOMETRY 1/3 T0, MEDIA [1]: 25.7
- RIGHT PLICOMETRY 2/3 T0, MEDIA [1]: 30.9
- RIGHT PLICOMETRY 3/3 T0, MEDIA [1]: 33.0
- LEFT PLICOMETRY 1/3 T15, MEDIA [2]: 25.3
- LEFT PLICOMETRY 2/3 T15, MEDIA [2]: 28.9
- LEFT PLICOMETRY 3/3 T15, MEDIA [2]: 30.6
- RIGHT PLICOMETRY 1/3 T15, MEDIA [2]: 24.4
- RIGHT PLICOMETRY 2/3 T15, MEDIA [2]: 29.6
- RIGHT PLICOMETRY 3/3 T15, MEDIA [2]: 32.3
- LEFT PLICOMETRY 1/3 T30, MEDIA [3]: 23.5
- LEFT PLICOMETRY 2/3 T30, MEDIA [3]: 27.3
- LEFT PLICOMETRY 3/3 T30, MEDIA [3]: 29.1
- RIGHT PLICOMETRY 1/3 T30, MEDIA [3]: 23.4
- RIGHT PLICOMETRY 2/3 T30, MEDIA [3]: 28.3
- RIGHT PLICOMETRY 3/3 T30, MEDIA [3]: 30.9
- LEFT PLICOMETRY 1/3 T60, MEDIA [4]: 22.5
- LEFT PLICOMETRY 2/3 T60, MEDIA [4]: 26.6
- LEFT PLICOMETRY 3/3 T60, MEDIA [4]: 28.2
- RIGHT PLICOMETRY 1/3 T60, MEDIA [4]: 22.7
- RIGHT PLICOMETRY 2/3 T60, MEDIA [4]: 27.7
- RIGHT PLICOMETRY 3/3 T60, MEDIA [4]: 29.9
